Experiments:
late watergrass = assay: Test Example 1: herbicidal activity, application before weed generation under submerged conditions (Table 16, symbol A); type: in vivo, late watergrass (Echinochloa oryzicola); conditions: 320 g/ha applied herbicide
Outline: (§1)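 Emulsion formulation, water-diluted to set dose, was put onto the flooded surface (4 cm depth, alluvial soil) the same day weeds were sown and 2.5-leaf rice transplanted. After 3 weeks at 25-30 °C under glass, each species was rated 0 (≤5% kill) to 5 (≥90% kill).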

barnyard grass [1] = assay: Test Example 4: herbicidal effect by soil treatment (Table 19, symbol H); type: in vivo, barnyard grass (Echinochloa crus-galli); conditions: for herbicidal effect rating, H: barnyard grass: 320 g/ha; for H: barnyard grass, herbicidal effect rating: AAH 320 g/ha
Outline: (§2)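 In this soil treatment, the formulated compound reached the seeds only through the soil: seeds were buried about 1.5 cm deep in sterilized diluvial soil, then the diluted emulsion was sprayed over the surface. After three weeks at 25° C. to 30° C. in a greenhouse, effects were graded on criteria from an earlier test.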

Italian ryegrass = assay: Test Example 5: herbicidal effect by foliage application, plastic box (Table 20, symbol K); type: in vivo, Italian ryegrass (Lolium multiflorum); conditions: foliage application, 320 g/ha, 3 weeks after application
Outline: (§3)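 Plants were sown into sterilized diluvial soil under about 1.5 cm cover and kept in a greenhouse at 25° C. to 30° C. Fourteen days on, foliage received an even spray of the diluted emulsion. Herbicidal or crop effect was judged three weeks afterwards.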

green foxtail [2] = assay: Test Example 5: herbicidal effect by foliage application, plastic box (Table 20, symbol G); type: in vivo, green foxtail (Setaria viridis); conditions: foliage application, 320 g/ha, 3 weeks after application
Outline: as §3

oval-leafed pondweed = assay: Test Example 1: herbicidal activity, application before weed generation under submerged conditions (Table 16, symbol C); type: in vivo, oval-leafed pondweed (Monochoria vaginalis); conditions: 320 g/ha applied herbicide
Outline: as §1

southern crabgrass = assay: Test Example 5: herbicidal effect by foliage application, plastic box (Table 20, symbol F); type: in vivo, southern crabgrass (Digitaria ciliaris); conditions: foliage application, 320 g/ha, 3 weeks after application
Outline: as §3

green foxtail [3] = assay: Test Example 4: herbicidal effect by soil treatment (Table 19, symbol G); type: in vivo, green foxtail (Setaria viridis); conditions: for herbicidal effect rating, G: green foxtail: 320 g/ha; for G: green foxtail, herbicidal effect rating: AAH 320 g/ha
Outline: as §2

blackgrass = assay: Test Example 5: herbicidal effect by foliage application, plastic box (Table 20, symbol J); type: in vivo, blackgrass (Alopecurus myosuroides); conditions: foliage application, 320 g/ha, 3 weeks after application
Outline: as §3

velvetleaf = assay: Test Example 4: herbicidal effect by soil treatment (Table 19, symbol M); type: in vivo, velvetleaf (Abutilon theophrasti); conditions: for herbicidal effect rating, M: velvetleaf: 320 g/ha; for M: velvetleaf, herbicidal effect rating: AAH 320 g/ha
Outline: as §2

Japanese bulrush = assay: Test Example 2: herbicidal activity, application during weed generation under submerged conditions (Table 17, symbol B); type: in vivo, Japanese bulrush (Schoenoplectus juncoides); conditions: AAH 320 g/ha; application during weed generation, submerged conditions
Outline: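 Mixed weed seedlings in alluvial soil under a 4 cm water layer, greenhouse-grown at 25–30° C. Compound given as a diluted emulsion into the floodwater at the 1–2 leaf stage; response graded after three weeks.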

rice flat sedge = assay: Test Example 3: herbicidal effect by foliage application, Wagner pot (Table 18, symbol E); type: in vivo, rice flat sedge (Cyperus iria); conditions: 320 g/ha
Outline: (§4)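 Plants were sown in alluvial soil held under 0.1–0.5 cm standing water and grown 14 days in a greenhouse at 25–30 °C. An emulsifiable formulation, water-diluted to the set dose, was then sprayed onto the foliage, and effects were scored three weeks later using previously defined criteria.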

redroot pigweed = assay: Test Example 4: herbicidal effect by soil treatment (Table 19, symbol N); type: in vivo, redroot pigweed (Amaranthus retroflexus); conditions: for herbicidal effect rating, N: redroot pigweed: 320 g/ha; for N: redroot pigweed, herbicidal effect rating: AAH 320 g/ha
Outline: as §2

barnyard grass [4] = assay: Test Example 3: herbicidal effect by foliage application, Wagner pot (Table 18, symbol H); type: in vivo, barnyard grass (Echinochloa crus-galli); conditions: 320 g/ha
Outline: as §4

chickweed = assay: Test Example 4: herbicidal effect by soil treatment (Table 19, symbol P); type: in vivo, common chickweed (Stellaria media); conditions: for herbicidal effect rating, P: chickweed: 320 g/ha; for P: chickweed, herbicidal effect rating: AAH 320 g/ha
Outline: as §2

Row | SMILES | Herbicidal effect on A: late watergrass (grade 0-5) (late watergrass) | herbicidal effect rating, H: barnyard grass (barnyard grass [1]) | effect on Italian ryegrass (K) (Italian ryegrass) | effect on green foxtail (G) (green foxtail [2]) | Herbicidal effect on C: oval-leafed pondweed (grade 0-5) (oval-leafed pondweed) | effect on southern crabgrass (F) (southern crabgrass) | herbicidal effect rating, G: green foxtail (green foxtail [3]) | effect on blackgrass (J) (blackgrass) | herbicidal effect rating, M: velvetleaf (velvetleaf) | herbicidal effect rating, B: Japanese bulrush (Japanese bulrush) | herbicidal effect on E (rice flat sedge), rating 0-5 (rice flat sedge) | herbicidal effect rating, N: redroot pigweed (redroot pigweed) | herbicidal effect on H (barnyard grass), rating 0-5 (barnyard grass [4]) | herbicidal effect rating, P: chickweed (chickweed) | H: barnyard grass, herbicidal effect rating (barnyard grass [1]) | G: green foxtail, herbicidal effect rating (green foxtail [3]) | M: velvetleaf, herbicidal effect rating (velvetleaf) | N: redroot pigweed, herbicidal effect rating (redroot pigweed) | P: chickweed, herbicidal effect rating (chickweed)
1 | CCCC(=O)Oc1c(C)nn(C)c(=O)c1-c1c(-c2ccc(CC)cc2)sc2ccc(F)cc12 [2-016] | 5 (Herbicidal rate of 90% or more (almost completely withered)) | 1 (Herbicidal rate of 5% or more and less than 20%) | 5 (Herbicidal rate of 90% or more (almost completely withered)) | 0 (Herbicidal rate of 5% or less (almost no effect)) | 5 (Herbicidal rate of 90% or more (almost completely withered)) | 0 (Herbicidal rate of 5% or less (almost no effect)) | 0 (Herbicidal rate of 5% or less (almost no effect)) | 1 (Herbicidal rate of 5% or more and less than 20%) | 3 (Herbicidal rate of 40% or more and less than 70%) | 4 (Herbicidal rate of 70% or more and less than 90%) | 5 (Herbicidal rate of 90% or more (almost completely withered)) | 5 (Herbicidal rate of 90% or more (almost completely withered)) | 5 (Herbicidal rate of 90% or more (almost completely withered)) | 1 (Herbicidal rate of 5% or more and less than 20%) |  |  |  |  | 
2 | C#CCSCc1ccc(-c2sc3ccccc3c2-c2c(O)c(C)nn(C)c2=O)cc1 [1-247] | 2 (Herbicidal rate of 20% or more and less than 40%) |  | 4 (Herbicidal rate of 70% or more and less than 90%) | 4 (Herbicidal rate of 70% or more and less than 90%) | 0 (Herbicidal rate of 5% or less (almost no effect)) | 2 (Herbicidal rate of 20% or more and less than 40%) |  | 0 (Herbicidal rate of 5% or less (almost no effect)) |  | 0 (Herbicidal rate of 5% or less (almost no effect)) | 4 (Herbicidal rate of 70% or more and less than 90%) |  | 5 (Herbicidal rate of 90% or more (almost completely withered)) |  | 0 (Herbicidal rate of 5% or less (almost no effect)) | 0 (Herbicidal rate of 5% or less (almost no effect)) | 0 (Herbicidal rate of 5% or less (almost no effect)) | 3 (Herbicidal rate of 40% or more and less than 70%) | 4 (Herbicidal rate of 70% or more and less than 90%)
3 | COCCOCOc1c(C)nn(C)c(=O)c1-c1c(-c2ccc(OCCSC)cc2)sc2ccccc12 [1-221] | 5 (Herbicidal rate of 90% or more (almost completely withered)) |  | 5 (Herbicidal rate of 90% or more (almost completely withered)) | 5 (Herbicidal rate of 90% or more (almost completely withered)) | 3 (Herbicidal rate of 40% or more and less than 70%) | 5 (Herbicidal rate of 90% or more (almost completely withered)) |  | 5 (Herbicidal rate of 90% or more (almost completely withered)) |  | 3 (Herbicidal rate of 40% or more and less than 70%) | 5 (Herbicidal rate of 90% or more (almost completely withered)) |  | 5 (Herbicidal rate of 90% or more (almost completely withered)) |  | 3 (Herbicidal rate of 40% or more and less than 70%) | 5 (Herbicidal rate of 90% or more (almost completely withered)) | 2 (Herbicidal rate of 20% or more and less than 40%) | 5 (Herbicidal rate of 90% or more (almost completely withered)) | 4 (Herbicidal rate of 70% or more and less than 90%)
4 | COCCOCOc1c(C)nn(C)c(=O)c1-c1c(-c2ccc(OCCC3OCCO3)cc2)sc2ccccc12 [1-224] | 5 (Herbicidal rate of 90% or more (almost completely withered)) |  | 0 (Herbicidal rate of 5% or less (almost no effect)) | 5 (Herbicidal rate of 90% or more (almost completely withered)) | 3 (Herbicidal rate of 40% or more and less than 70%) | 3 (Herbicidal rate of 40% or more and less than 70%) |  | 0 (Herbicidal rate of 5% or less (almost no effect)) |  | 3 (Herbicidal rate of 40% or more and less than 70%) | 5 (Herbicidal rate of 90% or more (almost completely withered)) |  | 5 (Herbicidal rate of 90% or more (almost completely withered)) |  | 1 (Herbicidal rate of 5% or more and less than 20%) | 3 (Herbicidal rate of 40% or more and less than 70%) | 5 (Herbicidal rate of 90% or more (almost completely withered)) | 4 (Herbicidal rate of 70% or more and less than 90%) | 0 (Herbicidal rate of 5% or less (almost no effect))
5 | CCCC(=O)Oc1c(C)nn(C)c(=O)c1-c1c(-c2ccc(OCC)cc2)sc2ccc(F)cc12 [2-031] | 3 (Herbicidal rate of 40% or more and less than 70%) | 3 (Herbicidal rate of 40% or more and less than 70%) | 0 (Herbicidal rate of 5% or less (almost no effect)) | 2 (Herbicidal rate of 20% or more and less than 40%) | 4 (Herbicidal rate of 70% or more and less than 90%) | 0 (Herbicidal rate of 5% or less (almost no effect)) | 2 (Herbicidal rate of 20% or more and less than 40%) | 0 (Herbicidal rate of 5% or less (almost no effect)) | 3 (Herbicidal rate of 40% or more and less than 70%) | 3 (Herbicidal rate of 40% or more and less than 70%) | 4 (Herbicidal rate of 70% or more and less than 90%) | 4 (Herbicidal rate of 70% or more and less than 90%) | 5 (Herbicidal rate of 90% or more (almost completely withered)) | 1 (Herbicidal rate of 5% or more and less than 20%) |  |  |  |  | 
6 | CCCCOc1ccc(-c2sc3ccc(F)cc3c2-c2c(OC(=O)CCC)c(C)nn(C)c2=O)cc1 [2-037] | 3 (Herbicidal rate of 40% or more and less than 70%) | 0 (Herbicidal rate of 5% or less (almost no effect)) | 0 (Herbicidal rate of 5% or less (almost no effect)) | 3 (Herbicidal rate of 40% or more and less than 70%) | 3 (Herbicidal rate of 40% or more and less than 70%) | 2 (Herbicidal rate of 20% or more and less than 40%) | 2 (Herbicidal rate of 20% or more and less than 40%) | 0 (Herbicidal rate of 5% or less (almost no effect)) | 4 (Herbicidal rate of 70% or more and less than 90%) | 1 (Herbicidal rate of 5% or more and less than 20%) | 4 (Herbicidal rate of 70% or more and less than 90%) | 5 (Herbicidal rate of 90% or more (almost completely withered)) | 4 (Herbicidal rate of 70% or more and less than 90%) | 1 (Herbicidal rate of 5% or more and less than 20%) |  |  |  |  | 

From patent publication US20230085307A1, “PYRIDAZINONE COMPOUND AND HERBICIDE” (NISSAN CHEMICAL CORPORATION, priority 2019, published 2023)
